Data from PMC4376724, “Differential Phenotypic and Functional Profiles of TcCA-2 -Specific Cytotoxic CD8^+ T Cells in the Asymptomatic versus Cardiac Phase in Chagasic Patients” (PLoS ONE, 2015).

Legend:
[1] = system: PBMCs from asymptomatic HLA-A*02:01 Chagas disease patients; assay: HLA-A*02:01 restriction assay: peptide-pulsed K562-A2 cells as APC, IFN-γ secretion by patient PBMC; format: cell-based, human; conditions: range among patients with a positive response; K562-A2 pulsed with 1 mM peptide 1 h, 30 h co-culture; K562 level subtracted
Procedure: TAP-deficient T2 cells were used for the HLA-A*02:01 binding assays and the K562-A2 cells for the HLA-A*02:01 restriction assay. The cells were cultured in complete RPMI medium supplemented with 10% of inactivated Fetal Calf Serum (iFCS), 2 mM glutamine, and 100 U/ml penicillin. K562-A2 cells, expressing the HLA-A*02:01 molecule were cultured in the presence of […] of G-418, as previously described. The T2 and K562-A2 cells were kindly provided by Dr. Pedro Romero (University of Lausanne) and by Dr Peter Ponsaerts (University of Antwerp, with the permission of Dr. Cedrik Britten from Johanes Gutenberg-University Mainz), respectively.
(§1) For the screening of the recognition of TcCA-2 epitopes by Chagas disease patients, 10 HLA-A*02:01 adult patients in the asymptomatic phase of the disease (IND) were enrolled. For cytotoxicity, functional activity determinations and phenotypic characterization another group of 19 HLA-A*02:01 adults Chagas disease patients and 9 healthy donors were analyzed. These patients were at the chronic stage of the disease and were considered to be at the asymptomatic phase (IND, n = 8) if there was no evidence of having cardiac or gastrointestinal disorders. Chronic Chagas cardiomyopathy patients (CCC, n = 11) were stratified into G1 to G3 stages following Kuschnir classification according to clinical criteria and radiological, electrocardiographic and echocardiography analyses. The number of patients was the one recommended by the Hospital Ethical Committee. […] The patients were enrolled in both studies (functional and phenotypic characterization, IND n = 6 and CCC n = 7) when the available number of purified PBMC (limited by the cellular number isolated from each subject) was enough for both analyses. Another four CCC patients had to be enrolled to perform the phenotypic analysis in order to reach statistical significance.
Cytokine secretion (IL-4, IL-10, IL-6, IFN-γ, TNF-α) was determined in the supernatants of PBMC from Chagas disease patients and healthy donors, after in vitro stimulation with 1 μM of each peptide for 30 h at 37°C in RPMI supplemented with 10% iFBS as explained before. The secretion profile was determined by using a bead-based multiplex immunoassay system (Bio-Plex, Bio-Rad), following the manufacturer's instructions. The response was considered positive if an increase in the secretion of cytokines was at least three folds higher than the secretion by un-stimulated cells (basal secretion level) and at least, 4 pg/mL for IL-4, 2 pg/mL for IL-10, 15 pg/mL for IL-6 and 5 pg/mL for IFN-γ and TNF-α. The positive control consisted of 50 ng/mL Phorbol 12 myristate 13-acetate (PMA) and 500 ng/mL ionomycin (Sigma). Cytokine levels were quantified in each sample by using the Bio-Plex Manager software 4.1 (Bio-Rad). […]

[2] = system: PBMC from HLA-A*02:01 Chagas disease patients and healthy donors; assay: Cytokine secretion test (Bio-Plex multiplex immunoassay) in PBMC supernatants; format: cell-based, human; conditions: 1 μM peptide, 30 h; for IFNγ / IL6 / TNFα: non-peptide control subtracted
Procedure: as §1
Cytokine secretion (IL-4, IL-10, IL-6, IFN-γ, TNF-α) was determined in the supernatants of PBMC from Chagas disease patients and healthy donors, after in vitro stimulation with 1 μM of each peptide for 30 h at 37°C in RPMI supplemented with 10% iFBS as explained before. The secretion profile was determined by using a bead-based multiplex immunoassay system (Bio-Plex, Bio-Rad), following the manufacturer's instructions. The response was considered positive if an increase in the secretion of cytokines was at least three folds higher than the secretion by un-stimulated cells (basal secretion level) and at least, 4 pg/mL for IL-4, 2 pg/mL for IL-10, 15 pg/mL for IL-6 and 5 pg/mL for IFN-γ and TNF-α. The positive control consisted of 50 ng/mL Phorbol 12 myristate 13-acetate (PMA) and 500 ng/mL ionomycin (Sigma). Cytokine levels were quantified in each sample by using the Bio-Plex Manager software 4.1 (Bio-Rad).
Functional analysis of the epitope-specific CD8^+ T cells was carried out by the determination of the secretion profile of IFN-γ, TNF-α, IL-4, IL10 and IL-6 cytokines. […] CD8^+ T cells from 2 out of 11 patients responded to stimulation with peptide TcCA-2_273-281 by secreting IL-6. […] There was no secretion of IL-4 and IL-10 in PBMC after stimulation with any one of the four TcCA-2 peptides (data not shown). IFN-γ, TNF-α and IL6 cytokines secretion levels were higher in patients at the asymptomatic phase of the disease than in Chagas patients with associated cardiomyopathy.

Sequence: TVFDASRSTV [TcCA-2_442-451]
- INF-γ secretion range [1]: 5.8 to 6.9 pg/mL
- Patients whose cells recognized the peptide by secreting IFN-γ, TNF-α and IL-6 ([2]; PBMC of Chagas patients, positive = at least three folds non-peptide control and ≥15 pg/mL IL-6, ≥5 pg/mL IFN-γ and TNF-α): 2 out of 14
- Patients whose cells recognized the peptide by secreting TNF-α and IL-6 ([2]; PBMC of Chagas patients, same positivity criteria): 2 out of 14
- IFNγ ([2]; PBMC of patient CCC I 456): 4 pg/mL
- IL6 ([2]; PBMC of patient CCC I 456): 46 pg/mL
- TNFα ([2]; PBMC of patient CCC I 456): 6 pg/mL
- IFNγ ([2]; PBMC of patient CCC I 770): -2 pg/mL
- IL6 ([2]; PBMC of patient CCC I 770): 3 pg/mL
- TNFα ([2]; PBMC of patient CCC I 770): -11 pg/mL
- IFNγ ([2]; PBMC of patient CCC I 861): 0 pg/mL
- IL6 ([2]; PBMC of patient CCC I 861): -4 pg/mL
- TNFα ([2]; PBMC of patient CCC I 861): -3 pg/mL
- IFNγ ([2]; PBMC of patient CCC I 884): 0 pg/mL
- IL6 ([2]; PBMC of patient CCC I 884): 0 pg/mL
- TNFα ([2]; PBMC of patient CCC I 884): 0 pg/mL
- IFNγ ([2]; PBMC of patient CCC II 142): 2 pg/mL
- IL6 ([2]; PBMC of patient CCC II 142): -3 pg/mL
- TNFα ([2]; PBMC of patient CCC II 142): -20 pg/mL
- IFNγ ([2]; PBMC of patient CCC III 509): 0 pg/mL
- IL6 ([2]; PBMC of patient CCC III 509): -4 pg/mL
- TNFα ([2]; PBMC of patient CCC III 509): -5 pg/mL
- IFNγ ([2]; PBMC of patient CCC III 797): 3 pg/mL
- IL6 ([2]; PBMC of patient CCC III 797): 31 pg/mL
- TNFα ([2]; PBMC of patient CCC III 797): 7 pg/mL
- IFNγ ([2]; PBMC of patient IND 265): 204 pg/mL
- IL6 ([2]; PBMC of patient IND 265): 1641 pg/mL
- TNFα ([2]; PBMC of patient IND 265): 160 pg/mL
- IFNγ ([2]; PBMC of patient IND 283): 12 pg/mL
- IL6 ([2]; PBMC of patient IND 283): 80 pg/mL
- TNFα ([2]; PBMC of patient IND 283): 35 pg/mL
- IFNγ ([2]; PBMC of patient IND 365): 0 pg/mL
- IL6 ([2]; PBMC of patient IND 365): 7 pg/mL
- TNFα ([2]; PBMC of patient IND 365): 15 pg/mL
- IFNγ ([2]; PBMC of patient IND 388): 1 pg/mL
- IL6 ([2]; PBMC of patient IND 388): 21 pg/mL
- TNFα ([2]; PBMC of patient IND 388): -10 pg/mL
- IFNγ ([2]; PBMC of patient IND 510): 0 pg/mL
- IL6 ([2]; PBMC of patient IND 510): 1 pg/mL
- TNFα ([2]; PBMC of patient IND 510): 1 pg/mL
- IFNγ ([2]; PBMC of patient IND 535): 0 pg/mL
- IL6 ([2]; PBMC of patient IND 535): -6 pg/mL
- TNFα ([2]; PBMC of patient IND 535): -1 pg/mL
- IFNγ ([2]; PBMC of patient IND 917): -1 pg/mL
- IL6 ([2]; PBMC of patient IND 917): -13 pg/mL
- TNFα ([2]; PBMC of patient IND 917): -4 pg/mL
- IFNγ ([2]; PBMC of subject HD 001): 4 pg/mL
- IL6 ([2]; PBMC of subject HD 001): 18 pg/mL
- TNFα ([2]; PBMC of subject HD 001): -6 pg/mL
- IFNγ ([2]; PBMC of subject HD 004): 0 pg/mL
- IL6 ([2]; PBMC of subject HD 004): -15 pg/mL
- TNFα ([2]; PBMC of subject HD 004): -1 pg/mL
- IFNγ ([2]; PBMC of subject HD 005): 5 pg/mL
- IL6 ([2]; PBMC of subject HD 005): 16 pg/mL
- TNFα ([2]; PBMC of subject HD 005): -1 pg/mL
- IFNγ ([2]; PBMC of subject HD 006): 2 pg/mL
- IL6 ([2]; PBMC of subject HD 006): -2 pg/mL
- TNFα ([2]; PBMC of subject HD 006): 2 pg/mL
- IFNγ ([2]; PBMC of subject HD 008): 1 pg/mL
- IL6 ([2]; PBMC of subject HD 008): 31 pg/mL
- TNFα ([2]; PBMC of subject HD 008): 15 pg/mL
- IFNγ ([2]; PBMC of subject HD 011): 8 pg/mL
- IL6 ([2]; PBMC of subject HD 011): 54 pg/mL
- TNFα ([2]; PBMC of subject HD 011): 10 pg/mL
- IFNγ ([2]; PBMC of subject HD 340): 2 pg/mL
- IL6 ([2]; PBMC of subject HD 340): 11 pg/mL
- TNFα ([2]; PBMC of subject HD 340): 3 pg/mL
- IFNγ ([2]; PBMC of subject HD 664): -3 pg/mL
- IL6 ([2]; PBMC of subject HD 664): 0 pg/mL
- TNFα ([2]; PBMC of subject HD 664): 0 pg/mL
